In patent publication US20140243415A1, “COMPOUNDS INHIBITING GALECTIN-1 EXPRESSION, CANCER CELL PROLIFERATION, INVASION, AND TUMORIGENESIS” (ONCOETHIX SA, priority 2011, published 2014):

What was measured:
[1] = test system: DLD-1TR21 colon cancer cells; test: Antiproliferative effects, SNAIL-inducible model; type: cell-based, human; conditions: SNAIL-inducible DLD-1TR21
Excerpt: FIG. 2. Epithelial-to-mesenchymal differentiation and OTX-008 sensitivity. A—Correlations between galectin-1 (LGALS1) and vimentin, E-cadherin (CDH1) and N-cadherin (CDH2) relative mRNA expression. B—Correlations between OTX-008 IC50s and vimentin, E-cadherin (CDH1) and N-cadherin (CDH2) relative mRNA expression. C—Antiproliferative effects of OTX-008 in epithelial COLO205-S and mesenchymal COLO205-R colon cancer cells. D—Antiproliferative effects of OTX-008 in SNAIL-inducible colon cancer cell lines. E—Antiproliferative effects of OTX-008 in shWISP breast cancer cell lines.
Cell survival was determined using the MTT assay (3-[4,5-dimethylthiazol-2-yl]-2,5-diphenyltetrazolium bromide; Sigma, Saint-Quentin Fallavier, France). The conversion of yellow water-soluble tetrazolium MTT into purple insoluble formazan is catalyzed by mitochondrial dehydrogenases and used to estimate the number of viable cells. In brief, cells were seeded in 96-well tissue culture plates at a density of 2×10^3 cells/well. […] After incubation, the supernatant was discarded, insoluble formazan precipitates were dissolved in 0.1 ml of DMSO and the absorbance was measured at 560 nm by use of a microplate reader (Thermo, France). […] IC50's were determined as the halves of maximal inhibitory drug concentration for each cell line. […]

[2] = test system: A2780-1A9 ovarian xenografts; test: A2780-1A9 xenograft model; type: in vivo
Protocol: FIG. 6. […] A—The antitumor effects of OTX-008 on A2780-1A9 xenograft were compared to that of active doses of cisplatin and paclitaxel—solid line represents days of treatment. B—Immunohistochemistry of galectin-1, Ki67 (MIB-1) and CD31 on A2780-1A9 xenograft. C—Tumor growth and secondary tumor formation of SQ20B xenografts untreated and treated with 10 mg/kg/day OTX-008 and SQ-shGAL1 xenografts. Tumor volume was determined as 3.14(width2)/length—solid line represents days of treatment. D—Immunohistochemistry of galectin-1, MIB1, VEGFR2 and CD31 on SQ20B xenografts
The immunohistochemical procedure was performed on OCT-embedded subcutaneous tumor stained with H&E, MIB1 ( 1/400, Dako, Glostrup, Denmark), CD31 ( 1/200, Dako), VEGFR2 ( 1/125, Cell Signaling, Saint Quentin Yvelines, France) or galectin-1 (1:20, Abcam, Cambridge, Mass., USA) using an automated immunohistochemical stainer according to the manufacturer's guidelines (streptavidin-peroxidase protocol; Benchmark, Ventana, Tuscon, Ariz., USA). The images were captured and analyzed with a Zeiss observer Z1 microscope. Images quantification was performed using Histolab Software (Microvision, France) subtracting the background. Magnification ×20 and ×40.
A volume containing 8.10^6 A2780-1A9 cancer cells was injected s.c. into the right lateral flank of female nu/nu athymic mice. When tumors become palpable, mice were randomized and treated i.p. with PBS (3 days per week), 5 mg/kg OTX-008 (3 days per week), 6 mg/kg cisplatin (days 1, 8 and 15) or 10 mg/kg taxotere (days 1, 8 and 15). Tumor size was measured three times per week with caliper and tumor volume was calculated as (length×width^2)/2. At the end of the study, animals were sacrificed and tumors collected and frozen in OCT for molecular biology and immunohistochemical analysis. Mouse experiments were approved by the Animal Housing and Experiment Board of the French government.

CN(C)CCNC(=O)COc1c2cccc1Cc1cccc(c1OCC(=O)NCCN(C)C)Cc1cccc(c1OCC(=O)NCCN(C)C)Cc1cccc(c1OCC(=O)NCCN(C)C)C2 [OTX-008]
effect of SNAIL induction on sensitivity [1]: no impact on sensitivity | tumor growth ([2]; 5 mg/kg OTX-008 i.p., 3 days per week): Tumor growth inhibition | antitumor effects relative to cisplatin and docetaxel ([2]; 5 mg/kg OTX-008 vs 6 mg/kg cisplatin, 10 mg/kg taxotere): comparable to that of cisplatin and docetaxel | VEGFR-2 expression ([2]; A2780-1A9 tumors): decreased expression of VEGFR-2 | number of micro-vessels in tumors ([2]; A2780-1A9 tumors): decreased number of micro-vessel | proliferation as measured by Ki67 expression ([2]; A2780-1A9 tumors): significantly reduced | toxicity at active doses ([2]; nude mice): no toxicity | vessels lumen surface area ([2]; vs control): significant decrease of the surface of vessels | galectin-1 expression in tumors (immunohistochemistry) ([2]; vs non treated tumors): significant lower galectin-1 expression
